From patent US4808586A, “Substituted benzimidazoles and benzothidiazoles having anti-asthmatic and/or anti-inflammatory activities” (American Cyanamid Company, priority 1987, dated 1989) come the findings set out here.

The structures appear in SMILES notation. Where two headings read alike, the source gives them in different places.

Test [1] relates to Immunologically Stimulated Human Basophils. The test can be described thus: Inhibition of histamine release from immunologically stimulated human basophils. Format: cell-based. The conditions noted are these: 1 h; human basophils challenged with anti-IgE or antigen, 60 minutes at 37° C.; linear regression; active if ED50 ≤48 μM; read-out: ED50 (concentration which causes a 50% inhibition of histamine release). As to the method:
The novel compounds of this invention have been tested by the procedure of Lichtenstein, L. M. and Osler, A. G., J. Exp. Med., 120, 507-530 (1964), which evaluates the ability of compounds to inhibit mediator (histamine) release from immunologically stimulated human basophils.
Dissolve 140.3 g of sodium chloride, 7.45 g of potassium chloride and 74.5 g of Trizma-Tris Pre-Set, Reagent Grade, pH 7.6, at 25° C. (Sigma Chemical Co.) in sufficient water to give a final volume of 2 liters.
(Sigma Chemical Co.) (30 mg/ml)
Made to 0.75M and 0.5M respectively, with calcium chloride dihydrate and magnesium chloride hexahydrate.
A 10 ml portion of 10X Tris Buffer and 1.0 ml of human albumin are diluted to 100 ml with water.
A 10 ml portion of 10X Tris Buffer, 1.0 ml of human albumin, 0.8 ml of calcium stock and 0.2 ml of magnesium stock are diluted to 100 ml with water.
Behring Diagnostics (Generally used at 10 μg protein/ml final concentration).
Strength 1:100 (w:v) allergenic extract, Hollister-Stier Labs. Generally this is diluted 1:1000 to 1:10,000 (considering the vial as stock).
Intradermal solutions or intramuscular preparations for hyposensitization, Hollister-Stier Labs. The final concentration used is on the order of 1 PNU/ml.
Eighty milliliters of blood is withdrawn from subjects with known histamine release to anti-Ige, rageweed antigen or other specific alergen, using four 20 ml heparainized tubes. This 80 ml of blood is mixed with 20 ml of saline containing 0.6 g of dextrose and 1.2 g of dextran. The blood is allowed to sediment at room temperature in two 50 ml polycarbonate centrifuge tubes until a sharp interface develops between the red cells and plasma (60-90 minutes). The plasma (top) layer from each tube is with-drawn by pipet and transferred to respective 50 ml polycarbonate tubes. The plasma is centrifuged for 8 minutes at 100×G at […]. The supernatant is carefully poured off as completely as possible and the cell button is resuspended in 2-3 ml of Tris-A buffer using a silconized Pasteur pipet. The resuspension is accomplished by drawing the liquid gently in an out of the pipet, with the tip below the liquid, until and even suspension of cells is obtained. Sufficient Tris-A buffer is then added to bring the volume in the tube to about 45 ml and the tube is centrifuged at 110×G for 8 minutes at 4° C. The supernatant is poured off and the cell button is resuspended and centrifuged as described above. The supernatant is poured off and the cell button suspended in 2-3 ml of Tris-ACM buffer to make the final volume sufficient to allow addition to the reaction tubes.
Reaction tubes containing anti-IgE or antigens, either alone or with test compound in a total volume of 0.2 ml are prepared and placed in a 37° C. bath. […]

The target in the next test is T1, Neutrophil Lipoxygenase (Cavia porcellus, UniProt A0A286X958).
T1 construct: endogenous in cells; host or cells: guinea pig peritoneal neutrophils
T1 sequence (A0A286X958 1-674): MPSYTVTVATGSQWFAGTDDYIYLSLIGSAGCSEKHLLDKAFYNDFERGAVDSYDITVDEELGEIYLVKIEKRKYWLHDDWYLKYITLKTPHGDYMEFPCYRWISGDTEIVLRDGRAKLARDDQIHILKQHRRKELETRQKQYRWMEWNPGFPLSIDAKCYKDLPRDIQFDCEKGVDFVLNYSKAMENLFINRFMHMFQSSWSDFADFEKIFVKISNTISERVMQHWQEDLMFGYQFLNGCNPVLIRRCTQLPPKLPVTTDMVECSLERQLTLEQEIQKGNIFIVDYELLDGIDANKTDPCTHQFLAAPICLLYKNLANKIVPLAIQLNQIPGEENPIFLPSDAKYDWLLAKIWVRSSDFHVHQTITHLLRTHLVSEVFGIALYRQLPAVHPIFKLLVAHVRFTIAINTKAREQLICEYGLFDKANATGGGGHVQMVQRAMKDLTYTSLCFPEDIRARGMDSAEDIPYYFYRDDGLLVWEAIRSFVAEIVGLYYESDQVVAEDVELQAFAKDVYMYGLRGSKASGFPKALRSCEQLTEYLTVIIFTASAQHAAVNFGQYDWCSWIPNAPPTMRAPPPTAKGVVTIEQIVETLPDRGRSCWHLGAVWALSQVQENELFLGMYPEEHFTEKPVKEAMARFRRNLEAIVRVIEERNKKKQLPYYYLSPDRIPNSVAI
The test can be described thus: Inhibition of neutrophil lipoxygenase (release and biosynthesis of LTB4 and 5-HETE) in guinea pig peritoneal neutrophils. It is filed as cell-based. The conditions noted are these: 10 μg/ml, 100 μM arachidonic acid and 20 μM A23187, the lower the percentage, the more active. As to the method: The ability of these compounds to inhibit lipoxygenase activity in terms of the suppression of the release and biosynthesis of leukotriene B4 (LTB4) and 5-hydroxyeicosatetraenoic acid (5-HETE) was measured as follows.
In this assay 3×10^7 peritoneal neutrophils derived from guinea pigs were incubated at 37° C. in Dulbeccos buffer containing 50 mM tris buffer (pH 7.4). Five minutes before the addition of 100 μM arachidonic acid and 20 μM calcium ionophore (A23187), control vehicle or the test compounds were added to the neutrophils at a concentration of 10 μg/ml.
Three minutes after the addition of arachidonic acid and calcium ionophore the total lipid was partitioned into chloroform after adjusting the pH to 3 with citric acid and the addition of equal parts of methanol and chloro-form.
The 5-HETE and LTB4 were resolved by HPLC using a 5 μM, 4×25 cm octadecyl silica solumn (IBM Instruments) with 70-80% methanol in water adjusted to pH 3.0 with acetic acid. As the mobile phase was pumped at 1.0 ml/minute, LTB4 and 5-HETE were detected by absorbance at 270 and 236 nm, respectively.
LTB4 and 5-HETE were quantitated by comparison with the control and results were expressed as a percent of control.

With `Oc1ccc(O)c2[nH]c(-c3ccc(Cl)cc3)nc12` [2-(4-Chlorophenyl)-1H-benzimidazole-4,7-diol], the IC50 in test [1] is 9.7 µM.
On to `O=C1C=CC(=O)c2[nH]c(-c3ccc(Cl)cc3)nc21` [2-(4-Chlorophenyl)-1H-benzimidazole-4,7-dione], for which the IC50 in test [1] is 6.8 µM.
With `COc1ccc(OC)c2[nH]c(-c3ccc(Cl)cc3)nc12` [2-(4-Chlorophenyl)-4,7-dimethoxy-1H-benzimidazole], the remaining activity at 10 µg/mL on Neutrophil Lipoxygenase (read-out: 5-HETE, % of Control) is 77%; on Neutrophil Lipoxygenase (read-out: LTB4, % of Control), 87%.
As for `Oc1ccc(O)c2[nH]c(-c3ccccc3)nc12` [2-Phenyl-1 --H--benzimidazole-4,7-diol, 2-Phenyl-1H-benzimidazole-4,7-diol], the remaining activity at 10 µg/mL at Neutrophil Lipoxygenase (read-out: 5-HETE, % of Control) turned out to be 32.1%; on Neutrophil Lipoxygenase (read-out: LTB4, % of Control) it was 33.9%.
As to `COc1ccc(OC)c2[nH]c(-c3ccccc3)nc12` [4,7-Dimethoxy-2-phenyl-1H-benzimidazole], the remaining activity at 10 µg/mL on Neutrophil Lipoxygenase (read-out: 5-HETE, % of Control) is 78.2%; at Neutrophil Lipoxygenase (read-out: LTB4, % of Control) it was 8%.
Consider `O=CN1CCN(C2=C(Cl)C(=O)c3nsnc3C2=O)CC1` [4-(6-Chloro-4,7-dihydro-4,7-dioxo-2,1,3-benzothiadiazol-5-yl)-1-piperazinecarboxaldehyde], for which the remaining activity at 10 µg/mL on Neutrophil Lipoxygenase (read-out: 5-HETE, % of Control) stood at 64%; on Neutrophil Lipoxygenase (read-out: LTB4, % of Control), 90.8%.
In the case of `CCOC(=O)N1CCN(C2=C(Cl)C(=O)c3nsnc3C2=O)CC1` [4-(6-Chloro-4,7-dihydro-4,7-dioxo-2,1,3-benzothiadiazol-5-yl)-1-piperazinecarboxylic acid, ethyl ester], the IC50 in test [1] turned out to be 1 µM. Further, the remaining activity at 10 µg/mL at Neutrophil Lipoxygenase (read-out: 5-HETE, % of Control) is 40.5%; on Neutrophil Lipoxygenase (read-out: LTB4, % of Control) it was 39.3%.
Regarding `O=C1C(Cl)=C(N2CCN(c3cccc(C(F)(F)F)c3)CC2)C(=O)c2nsnc21` [5-Chloro-6-6[4-[3-(trifluoromethyl)phenyl]-1-piperazinyl]-2,1,3-benzothiadiazole-4,7-dione], in test [1], the IC50 was 9.1 µM. Further, the remaining activity at 10 µg/mL at Neutrophil Lipoxygenase (read-out: 5-HETE, % of Control) amounted to 15.2%; at Neutrophil Lipoxygenase (read-out: LTB4, % of Control), 14.6%.
With `O=C1C(Cl)=C(N2CCN(c3nc4ccccc4o3)CC2)C(=O)c2nsnc21` [5-[4-(2-Benzoxazolyl)-1-piperazinyl]-6-chloro-2,1,3-benzothiadiazole-4,7-dione], the remaining activity at 10 µg/mL came out at 20.8% on Neutrophil Lipoxygenase (read-out: 5-HETE, % of Control) and 25.8% on Neutrophil Lipoxygenase (read-out: LTB4, % of Control).
